Measurements as given in the kinase profiling compilation of Christmann-Franck et al. (2016).

Legend:
Assay in all cases: KINOMEscan competition binding
Settings in all cases: compound 10.0 µM
ABL1 (human) = ABL1 (human) (UniProt P00519)
[1] = tested on: ABL1 (human), P00519 [H396P]
ACVRL1 (human) = ACVRL1 (human) (UniProt P37023)
AURKA (human) = AURKA (human) (UniProt O14965)
CAMK2G (human) = CAMK2G (human) (UniProt Q13555)
CDK2 (human) = CDK2 (human) (UniProt P24941)
CDK3 (human) = CDK3 (human) (UniProt Q00526)
CIT (human) = CIT (human) (UniProt O14578)
CIT (human), sequence (O14578 whole entry, looked up): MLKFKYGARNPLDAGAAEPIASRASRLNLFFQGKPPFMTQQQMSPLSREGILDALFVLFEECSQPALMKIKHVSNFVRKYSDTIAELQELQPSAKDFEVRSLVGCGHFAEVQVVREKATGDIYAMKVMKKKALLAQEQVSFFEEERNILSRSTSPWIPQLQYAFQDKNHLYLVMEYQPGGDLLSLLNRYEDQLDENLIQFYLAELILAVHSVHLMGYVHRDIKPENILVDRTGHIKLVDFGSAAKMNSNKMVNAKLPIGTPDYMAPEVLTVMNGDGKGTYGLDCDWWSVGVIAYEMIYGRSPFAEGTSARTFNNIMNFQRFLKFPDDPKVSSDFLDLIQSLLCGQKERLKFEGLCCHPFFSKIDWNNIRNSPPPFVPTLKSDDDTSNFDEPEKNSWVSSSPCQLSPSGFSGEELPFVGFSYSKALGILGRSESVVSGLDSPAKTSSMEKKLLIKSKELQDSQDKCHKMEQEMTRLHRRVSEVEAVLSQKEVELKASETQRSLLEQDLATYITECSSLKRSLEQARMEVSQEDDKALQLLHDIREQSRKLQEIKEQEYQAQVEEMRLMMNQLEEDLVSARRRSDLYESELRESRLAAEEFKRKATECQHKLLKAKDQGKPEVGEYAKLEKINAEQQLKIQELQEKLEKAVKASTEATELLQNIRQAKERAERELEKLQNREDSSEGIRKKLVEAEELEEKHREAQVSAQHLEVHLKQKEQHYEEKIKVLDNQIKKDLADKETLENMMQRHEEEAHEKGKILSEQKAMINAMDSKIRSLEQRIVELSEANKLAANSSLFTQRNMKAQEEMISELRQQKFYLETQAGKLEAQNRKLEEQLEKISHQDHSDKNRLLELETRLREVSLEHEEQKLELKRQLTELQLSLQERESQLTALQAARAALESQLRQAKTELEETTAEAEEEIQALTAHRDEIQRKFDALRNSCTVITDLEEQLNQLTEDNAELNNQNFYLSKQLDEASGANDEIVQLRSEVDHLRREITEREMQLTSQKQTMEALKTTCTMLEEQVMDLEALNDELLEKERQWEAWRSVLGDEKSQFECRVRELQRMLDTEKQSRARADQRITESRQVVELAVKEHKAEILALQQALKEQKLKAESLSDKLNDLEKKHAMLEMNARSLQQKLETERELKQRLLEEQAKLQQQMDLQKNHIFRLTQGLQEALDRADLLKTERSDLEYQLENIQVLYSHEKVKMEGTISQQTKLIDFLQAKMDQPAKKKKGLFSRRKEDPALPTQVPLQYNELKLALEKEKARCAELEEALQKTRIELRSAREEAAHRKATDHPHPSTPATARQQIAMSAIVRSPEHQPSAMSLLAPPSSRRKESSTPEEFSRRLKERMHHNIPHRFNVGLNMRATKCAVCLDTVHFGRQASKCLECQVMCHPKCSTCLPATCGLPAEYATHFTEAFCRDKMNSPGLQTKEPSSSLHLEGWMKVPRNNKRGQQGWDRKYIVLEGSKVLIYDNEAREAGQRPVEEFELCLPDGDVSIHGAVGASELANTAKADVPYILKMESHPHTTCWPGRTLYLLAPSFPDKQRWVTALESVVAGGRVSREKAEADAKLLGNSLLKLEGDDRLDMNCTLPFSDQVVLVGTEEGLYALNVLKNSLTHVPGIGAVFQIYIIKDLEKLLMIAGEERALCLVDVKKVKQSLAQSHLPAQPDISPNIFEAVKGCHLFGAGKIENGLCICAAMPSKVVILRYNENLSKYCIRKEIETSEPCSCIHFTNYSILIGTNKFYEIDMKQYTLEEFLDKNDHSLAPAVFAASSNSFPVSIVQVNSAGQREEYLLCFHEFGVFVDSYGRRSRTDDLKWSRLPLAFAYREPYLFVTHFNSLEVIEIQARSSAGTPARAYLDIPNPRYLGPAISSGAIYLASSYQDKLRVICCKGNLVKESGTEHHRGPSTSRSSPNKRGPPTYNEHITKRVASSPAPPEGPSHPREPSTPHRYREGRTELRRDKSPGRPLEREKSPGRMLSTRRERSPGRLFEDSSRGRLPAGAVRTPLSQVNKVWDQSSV

EIF2AK2 (human) = EIF2AK2 (human) (UniProt P19525)
LATS1 (human) = LATS1 (human) (UniProt O95835)
MAP2K6 (human) = MAP2K6 (human) (UniProt P52564)
MAP2K6 (human), sequence (P52564 whole entry, looked up): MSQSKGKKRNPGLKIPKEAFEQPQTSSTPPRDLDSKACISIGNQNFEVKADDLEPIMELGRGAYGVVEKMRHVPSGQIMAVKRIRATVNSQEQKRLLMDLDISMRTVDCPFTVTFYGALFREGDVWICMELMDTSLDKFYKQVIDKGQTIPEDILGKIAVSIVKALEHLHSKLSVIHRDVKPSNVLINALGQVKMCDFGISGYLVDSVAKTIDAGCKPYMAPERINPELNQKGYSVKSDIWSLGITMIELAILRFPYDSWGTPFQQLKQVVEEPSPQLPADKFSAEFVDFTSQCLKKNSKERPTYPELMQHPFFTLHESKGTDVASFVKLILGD

MAP3K12 (human) = MAP3K12 (human) (UniProt Q12852)
MAPK6 (human) = MAPK6 (human) (UniProt Q16659)
MKNK1 (human) = MKNK1 (human) (UniProt Q9BUB5)
MKNK1 (human), sequence (Q9BUB5 whole entry, looked up): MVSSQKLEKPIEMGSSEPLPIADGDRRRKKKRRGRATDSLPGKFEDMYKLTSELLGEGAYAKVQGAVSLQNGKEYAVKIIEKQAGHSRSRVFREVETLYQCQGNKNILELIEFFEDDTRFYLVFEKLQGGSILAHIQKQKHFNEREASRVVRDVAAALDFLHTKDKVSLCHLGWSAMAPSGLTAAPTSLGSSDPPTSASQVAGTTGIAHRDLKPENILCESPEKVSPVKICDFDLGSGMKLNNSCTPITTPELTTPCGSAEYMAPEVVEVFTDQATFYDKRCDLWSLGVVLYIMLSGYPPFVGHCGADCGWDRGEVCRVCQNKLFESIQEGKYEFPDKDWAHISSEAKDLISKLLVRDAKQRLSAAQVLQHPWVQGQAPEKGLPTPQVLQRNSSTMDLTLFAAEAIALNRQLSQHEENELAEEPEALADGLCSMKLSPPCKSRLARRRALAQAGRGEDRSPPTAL

MST1R (human) = MST1R (human) (UniProt Q04912)
NEK9 (human) = NEK9 (human) (UniProt Q8TD19)
PHKG1 (human) = PHKG1 (human) (UniProt Q16816)
PHKG2 (human) = PHKG2 (human) (UniProt P15735)
PIP4K2B (human) = PIP4K2B (human) (UniProt P78356)
PTK2B (human) = PTK2B (human) (UniProt Q14289)
RIOK1 (human) = RIOK1 (human) (UniProt Q9BRS2)
RPS6KA2 KD2 (human) = RPS6KA2 KD2 (human) (UniProt Q15349)
RPS6KA4 KD2 (human) = RPS6KA4 KD2 (human) (UniProt O75676)
RPS6KA6 KD1 (human) = RPS6KA6 KD1 (human) (UniProt Q9UK32)
RPS6KA6 KD2 (human) = RPS6KA6 KD2 (human) (UniProt Q9UK32)
SLK (human) = SLK (human) (UniProt Q9H2G2)
TEC (human) = TEC (human) (UniProt P42680)
TSSK1B (human) = TSSK1B (human) (UniProt Q9BXA7)
TSSK1B (human), sequence (Q9BXA7 whole entry, looked up): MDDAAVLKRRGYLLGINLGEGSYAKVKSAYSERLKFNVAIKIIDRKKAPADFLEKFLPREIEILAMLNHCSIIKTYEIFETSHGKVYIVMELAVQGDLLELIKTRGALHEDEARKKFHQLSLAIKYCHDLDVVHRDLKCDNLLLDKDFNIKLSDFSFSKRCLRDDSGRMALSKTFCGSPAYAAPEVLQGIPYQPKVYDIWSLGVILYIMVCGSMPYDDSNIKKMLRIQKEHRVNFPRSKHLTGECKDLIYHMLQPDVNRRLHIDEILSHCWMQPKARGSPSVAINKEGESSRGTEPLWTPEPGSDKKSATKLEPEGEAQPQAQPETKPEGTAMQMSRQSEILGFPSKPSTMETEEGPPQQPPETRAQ

[2] = target: TYK2 JH1 catalytic (human) (UniProt P29597)
TYK2 JH1 catalytic (human), sequence (P29597 whole entry, looked up): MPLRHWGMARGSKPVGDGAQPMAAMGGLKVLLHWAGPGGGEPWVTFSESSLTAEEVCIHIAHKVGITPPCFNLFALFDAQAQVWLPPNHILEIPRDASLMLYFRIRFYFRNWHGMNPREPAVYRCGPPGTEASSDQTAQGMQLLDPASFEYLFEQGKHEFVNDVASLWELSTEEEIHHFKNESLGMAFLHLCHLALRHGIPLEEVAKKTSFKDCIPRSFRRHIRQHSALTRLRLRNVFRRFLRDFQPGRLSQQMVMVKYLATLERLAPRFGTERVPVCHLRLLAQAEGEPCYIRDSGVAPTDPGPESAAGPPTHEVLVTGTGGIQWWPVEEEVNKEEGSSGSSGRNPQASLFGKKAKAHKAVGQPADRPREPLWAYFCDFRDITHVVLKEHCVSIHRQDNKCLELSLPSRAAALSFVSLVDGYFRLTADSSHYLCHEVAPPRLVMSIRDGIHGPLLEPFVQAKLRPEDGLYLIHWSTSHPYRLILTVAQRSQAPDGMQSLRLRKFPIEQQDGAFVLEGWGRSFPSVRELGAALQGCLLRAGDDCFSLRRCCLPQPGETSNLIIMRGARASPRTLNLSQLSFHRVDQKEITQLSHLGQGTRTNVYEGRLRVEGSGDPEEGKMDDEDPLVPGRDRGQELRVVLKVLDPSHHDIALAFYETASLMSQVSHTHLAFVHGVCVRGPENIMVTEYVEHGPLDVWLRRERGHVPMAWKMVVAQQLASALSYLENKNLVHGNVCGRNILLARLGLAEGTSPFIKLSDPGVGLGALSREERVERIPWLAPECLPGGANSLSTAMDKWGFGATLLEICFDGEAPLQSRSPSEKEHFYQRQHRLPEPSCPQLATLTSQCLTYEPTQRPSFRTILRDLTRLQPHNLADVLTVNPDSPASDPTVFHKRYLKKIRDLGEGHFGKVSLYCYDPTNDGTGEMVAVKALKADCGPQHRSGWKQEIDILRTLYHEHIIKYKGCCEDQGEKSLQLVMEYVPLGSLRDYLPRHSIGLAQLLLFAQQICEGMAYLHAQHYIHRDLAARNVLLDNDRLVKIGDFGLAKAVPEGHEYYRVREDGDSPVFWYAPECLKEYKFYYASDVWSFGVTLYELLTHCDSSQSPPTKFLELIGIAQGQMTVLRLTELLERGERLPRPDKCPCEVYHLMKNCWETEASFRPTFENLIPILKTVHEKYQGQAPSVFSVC

ULK2 (human) = ULK2 (human) (UniProt Q8IYT8)
YES1 (human) = YES1 (human) (UniProt P07947)

AURKA (human), sequence (O14965 whole entry, looked up): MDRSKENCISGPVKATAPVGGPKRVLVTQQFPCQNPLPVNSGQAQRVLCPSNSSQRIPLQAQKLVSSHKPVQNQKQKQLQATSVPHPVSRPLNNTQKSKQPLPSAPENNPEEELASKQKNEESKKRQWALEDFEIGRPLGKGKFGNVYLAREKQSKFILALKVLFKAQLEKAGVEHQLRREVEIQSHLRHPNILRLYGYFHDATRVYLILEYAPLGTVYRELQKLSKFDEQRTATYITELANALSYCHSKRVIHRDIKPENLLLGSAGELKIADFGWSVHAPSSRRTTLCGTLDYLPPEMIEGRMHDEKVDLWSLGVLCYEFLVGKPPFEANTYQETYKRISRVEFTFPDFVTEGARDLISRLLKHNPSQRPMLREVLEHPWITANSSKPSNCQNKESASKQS

| SMILES | kinase still bound, per cent of control (ABL1 (human)) | kinase still bound, per cent of control [1] | kinase still bound, per cent of control (ACVRL1 (human)) | kinase still bound, per cent of control (AURKA (human)) | kinase still bound, per cent of control (CAMK2G (human)) | kinase still bound, per cent of control (CDK2 (human)) | kinase still bound, per cent of control (CDK3 (human)) | kinase still bound, per cent of control (CIT (human)) | kinase still bound, per cent of control (EIF2AK2 (human)) | kinase still bound, per cent of control (LATS1 (human)) | kinase still bound, per cent of control (MAP2K6 (human)) | kinase still bound, per cent of control (MAP3K12 (human)) | kinase still bound, per cent of control (MAPK6 (human)) | kinase still bound, per cent of control (MKNK1 (human)) | kinase still bound, per cent of control (MST1R (human)) | kinase still bound, per cent of control (NEK9 (human)) | kinase still bound, per cent of control (PHKG1 (human)) | kinase still bound, per cent of control (PHKG2 (human)) | kinase still bound, per cent of control (PIP4K2B (human)) | kinase still bound, per cent of control (RIOK1 (human)) | further results |
| --- | --- | --- | --- | --- | --- | --- | --- | --- | --- | --- | --- | --- | --- | --- | --- | --- | --- | --- | --- | --- | --- |
| C=CC(=O)Nc1ccc(CN(C(=O)Nc2c(Cl)c(OC)cc(OC)c2Cl)c2cc(Nc3ccc(N4CCN(C)CC4)cc3)ncn2)cc1 | 16% | 20% | 100% | 100% | 100% | 100% | 100% | 100% | 100% | 100% | 100% | 100% | 100% | 100% | 100% | 100% | 100% | 100% | 100% | 100% | kinase still bound, per cent of control (PTK2B (human)): 100%; kinase still bound, per cent of control (RPS6KA2 KD2 (human)): 100%; kinase still bound, per cent of control (RPS6KA4 KD2 (human)): 100%; kinase still bound, per cent of control (RPS6KA6 KD1 (human)): 100%; kinase still bound, per cent of control (RPS6KA6 KD2 (human)): 100%; kinase still bound, per cent of control (SLK (human)): 9.8%; kinase still bound, per cent of control (TEC (human)): 7.2%; kinase still bound, per cent of control (TSSK1B (human)): 100%; kinase still bound, per cent of control [2]: 12%; kinase still bound, per cent of control (ULK2 (human)): 100%; kinase still bound, per cent of control (YES1 (human)): 5.2% |
| CS(=O)(=O)N1CCN(Cc2cc3nc(-c4cccc5[nH]ncc45)nc(N4CCOCC4)c3s2)CC1 | 100% | 100% | 100% | 100% | 100% | 100% | 100% | 100% | 100% | 100% | 100% | 100% | 100% | 100% | 100% | 100% | 100% | 100% | 100% | 100% | kinase still bound, per cent of control (PTK2B (human)): 100%; kinase still bound, per cent of control (RPS6KA2 KD2 (human)): 100%; kinase still bound, per cent of control (RPS6KA4 KD2 (human)): 100%; kinase still bound, per cent of control (RPS6KA6 KD1 (human)): 100%; kinase still bound, per cent of control (RPS6KA6 KD2 (human)): 100%; kinase still bound, per cent of control (SLK (human)): 100%; kinase still bound, per cent of control (TEC (human)): 100%; kinase still bound, per cent of control (TSSK1B (human)): 100%; kinase still bound, per cent of control [2]: 100%; kinase still bound, per cent of control (ULK2 (human)): 100%; kinase still bound, per cent of control (YES1 (human)): 100% |
| COc1cc(N2CCN(C)CC2)ccc1Nc1ncc2c(n1)N(C)c1ccccc1C(=O)N2C | 100% | 100% | 100% | 100% | 31% | 100% | 100% | 100% | 100% | 100% | 100% | 100% | 100% | 100% | 100% | 100% | 100% | 29% | 100% | 100% | kinase still bound, per cent of control (PTK2B (human)): 100%; kinase still bound, per cent of control (RPS6KA2 KD2 (human)): 15%; kinase still bound, per cent of control (RPS6KA4 KD2 (human)): 100%; kinase still bound, per cent of control (RPS6KA6 KD1 (human)): 100%; kinase still bound, per cent of control (RPS6KA6 KD2 (human)): 4.9%; kinase still bound, per cent of control (SLK (human)): 100%; kinase still bound, per cent of control (TEC (human)): 100%; kinase still bound, per cent of control (TSSK1B (human)): 100%; kinase still bound, per cent of control [2]: 100%; kinase still bound, per cent of control (ULK2 (human)): 0.5%; kinase still bound, per cent of control (YES1 (human)): 100% |
| Cc1n[nH]c2ccc(-c3cncc(OC[C@@H](N)Cc4c[nH]c5ccccc45)c3)cc12 | 100% | 100% | 100% | 100% | 5.4% | 100% | 22% | 0.2% | 100% | 3.8% | 100% | 100% | 100% | 19% | 100% | 100% | 8% | 23% | 5.4% | 2.8% | kinase still bound, per cent of control (RPS6KA2 KD2 (human)): 100%; kinase still bound, per cent of control (RPS6KA4 KD2 (human)): 9.9%; kinase still bound, per cent of control (RPS6KA6 KD1 (human)): 100%; kinase still bound, per cent of control (RPS6KA6 KD2 (human)): 100%; kinase still bound, per cent of control (SLK (human)): 100%; kinase still bound, per cent of control (TEC (human)): 100%; kinase still bound, per cent of control (TSSK1B (human)): 100%; kinase still bound, per cent of control [2]: 100%; kinase still bound, per cent of control (ULK2 (human)): 12%; kinase still bound, per cent of control (YES1 (human)): 100% |
